Measured values: patent US12152022B2, “N-[5-(aminosulfonyl)-4-methyl-1,3-thiazol-2-yl]-N-methyl-2-[4-(2-pyridinyl)-phenyl]-acetamide free base hemihydrate, methods of manufacture and uses thereof” (AiCuris Anti-Infective Cures GmbH, priority 2016, dated 2024)

Key:
[1] = test system: herpes simplex virus; conditions: compared with N-[5-(amino-sulfonyl)-4-methyl-1,3-thiazol-2-yl]-N-methyl-2-[4-(2-pyridinyl)phenyl]acetamide; cited from earlier work
[2] = Hygroscopicity / DVS water sorption; assay type: physicochemical; conditions: for DVS: release and adsorption of water: 25° C., experiment time <600 min for Form C
Source text: FIG. 6A: weight vs. relative humidity, FIG. 6B: measurement over time.
(§1) The hemihydrate Form C was isolated on larger scale. The starting material for the screening (Form B) was a monohydrate. Additionally a potential dihydrate (form L) was identified. […] To extend the exposure to different relative humidity (RH) values small vials with solid/saturated solutions were loaded with an open pan of Form C on top and the sealed vials kept for 5 days (see the data below for different humidity levels).

[3] = Saturated solubility in individual excipients; assay type: physicochemical; conditions: mean, n=3
Source text: Comparative Solubility of Free Base and Free Base Hemihydrate in Individual Excipients Saturated solubility (% w/w) of two forms of pritelivir (batches BXR2KVE for the free base and M023862-CA15-033 for pritelivir hemihydrate) in PEG 400 and propylene glycol, mean (range, n=3) are shown in Table 11 below.

[4] = Octanol/water partition coefficient; assay type: physicochemical; conditions: 25° C.
Method: (§2) The physical characterization of the free base hemihydrate referred to herein was performed using compendial methods as per European Pharmacopoeia (Ph. Eur.) and/or the U.S.
(§3) The identified forms were then further characterized by several methods: XRPD, Optical microscopy, ^1H-NMR, DSC, TGA, and DVS. The physical characterization of the free base hemihydrate referred to herein was performed using compendial methods as per European Pharmacopoeia (Ph. Eur.) and/or the U.S. Pharmacopeial Convention (USP).
(§4) General properties of N-[5-(aminosulfonyl)-4-methyl-1,3-thiazol-2-yl]-N-methyl-2-[4-(2-pyridinyl)-phenyl]-acetamide hemihydrate Table 9: […]

[5] = pKa value by photometric titration; assay type: physicochemical
Method: as §2, §3, §4

[6] = Exposure of Form C to different relative humidity values, check by XRPD; assay type: physicochemical; conditions: <5% to 100% RH, sealed vials, 5 days
Source text: as §1

[7] = test system: HSV-2; conditions: once daily suppressive therapy; cited from earlier work

## C[C@H](Cn1cnc2c(N)ncnc21)OCP(=O)(O)O [Tenofovir]
[1]
  IC50-values compared to pritelivir: significantly higher

## Cc1nc(N(C)C(=O)Cc2ccc(-c3ccccn3)cc2)sc1S(N)(=O)=O [pritelivir free base, N-[5-(aminosulfonyl)-4-methyl-1,3-thiazol-2-yl]-N-methyl-2-[4-(2-pyridinyl)-phenyl]-acetamide]
[2]; listed as Form B
  DVS: release and adsorption of water: release and adsorb water more rapidly than Form C
[3]; PEG 400
  Saturated solubility in PEG 400: 3.30 % w/w
[3]; PEG 400, column marked *, asterisk not explained
  Saturated solubility in PEG 400 (free base*): 7.87 % w/w
[3]; Propylene glycol
  Saturated solubility in propylene glycol: 0.20 % w/w
[3]; Propylene glycol, column marked *, asterisk not explained
  Saturated solubility in propylene glycol (free base*): 2.84 % w/w

## Cc1nc(N(C)C(=O)Cc2ccc(-c3ccccn3)cc2)sc1S(N)(=O)=O [pritelivir hemihydrate, N-[5-(aminosulfonyl)-4-methyl-1,3-thiazol-2-yl]-N-methyl-2-[4-(2-pyridinyl)-phenyl]-acetamide free base hemihydrate]
[4]
  logP: -0.0405
[5]
  pKa value (photometric titration): 4.6
[2]
  Hygroscopicity: Not hygroscopic
[2]; hemihydrate
  DVS: release and adsorption of water: almost no change
[3]; PEG 400, hemihydrate
  Saturated solubility in PEG 400: 7.87 % w/w
[3]; Propylene glycol, hemihydrate
  Saturated solubility in propylene glycol: 0.59 % w/w
[6]
  Solid form by XRPD after humidity exposure: all samples confirmed to be Form C

## CC(C)[C@H](N)C(=O)OCCOCn1cnc2c(=O)[nH]c(N)nc21 [valacyclovir]
[7]
  Risk of transmission of genital herpes: significantly reduces the risk of transmission
